According to article PMC4828318 (Journal of enzyme inhibition and medicinal chemistry, 2015):
pIC50: −log10 of the molar value. Like-named read-outs stand apart in the source and are kept apart here.

Assays:
DNMT3B/3L = DNMT3B/3L (Homo sapiens, UniProt Q9UBC3); experiment: In vitro DNMT inhibition, radiometric filter-paper assay, DNMT3B/3L; type: biochemical
DNMT1 [1] = conditions: rats, 21-week treatment period; protein expression ref 39; cited from earlier work
DNMT3A/3L = DNMT3A/3L (Homo sapiens, UniProt Q9Y6K1); experiment: In vitro DNMT inhibition, radiometric filter-paper assay, DNMT3A/3L; type: biochemical
HT-29 cells = experiment: MTT cell proliferation assay, HT-29; type: cell-based; conditions: Homo sapiens, HT-29, 24 h, read-out: IC50 (μM) HT-29
HepG2 cells = experiment: MTT cell proliferation assay, HepG2; type: cell-based; conditions: Homo sapiens, HepG2, 24 h, read-out: IC50 (μM) HepG2
DNMT3B = conditions: rats, 21-week treatment period; protein expression ref 39; cited from earlier work
DNMT1 [2] = target: DNMT1 (Homo sapiens, UniProt P26358); experiment: In vitro DNMT inhibition, radiometric filter-paper assay, DNMT1; type: biochemical
Sequence of DNMT1 (Homo sapiens, UniProt P26358) (P26358 whole entry): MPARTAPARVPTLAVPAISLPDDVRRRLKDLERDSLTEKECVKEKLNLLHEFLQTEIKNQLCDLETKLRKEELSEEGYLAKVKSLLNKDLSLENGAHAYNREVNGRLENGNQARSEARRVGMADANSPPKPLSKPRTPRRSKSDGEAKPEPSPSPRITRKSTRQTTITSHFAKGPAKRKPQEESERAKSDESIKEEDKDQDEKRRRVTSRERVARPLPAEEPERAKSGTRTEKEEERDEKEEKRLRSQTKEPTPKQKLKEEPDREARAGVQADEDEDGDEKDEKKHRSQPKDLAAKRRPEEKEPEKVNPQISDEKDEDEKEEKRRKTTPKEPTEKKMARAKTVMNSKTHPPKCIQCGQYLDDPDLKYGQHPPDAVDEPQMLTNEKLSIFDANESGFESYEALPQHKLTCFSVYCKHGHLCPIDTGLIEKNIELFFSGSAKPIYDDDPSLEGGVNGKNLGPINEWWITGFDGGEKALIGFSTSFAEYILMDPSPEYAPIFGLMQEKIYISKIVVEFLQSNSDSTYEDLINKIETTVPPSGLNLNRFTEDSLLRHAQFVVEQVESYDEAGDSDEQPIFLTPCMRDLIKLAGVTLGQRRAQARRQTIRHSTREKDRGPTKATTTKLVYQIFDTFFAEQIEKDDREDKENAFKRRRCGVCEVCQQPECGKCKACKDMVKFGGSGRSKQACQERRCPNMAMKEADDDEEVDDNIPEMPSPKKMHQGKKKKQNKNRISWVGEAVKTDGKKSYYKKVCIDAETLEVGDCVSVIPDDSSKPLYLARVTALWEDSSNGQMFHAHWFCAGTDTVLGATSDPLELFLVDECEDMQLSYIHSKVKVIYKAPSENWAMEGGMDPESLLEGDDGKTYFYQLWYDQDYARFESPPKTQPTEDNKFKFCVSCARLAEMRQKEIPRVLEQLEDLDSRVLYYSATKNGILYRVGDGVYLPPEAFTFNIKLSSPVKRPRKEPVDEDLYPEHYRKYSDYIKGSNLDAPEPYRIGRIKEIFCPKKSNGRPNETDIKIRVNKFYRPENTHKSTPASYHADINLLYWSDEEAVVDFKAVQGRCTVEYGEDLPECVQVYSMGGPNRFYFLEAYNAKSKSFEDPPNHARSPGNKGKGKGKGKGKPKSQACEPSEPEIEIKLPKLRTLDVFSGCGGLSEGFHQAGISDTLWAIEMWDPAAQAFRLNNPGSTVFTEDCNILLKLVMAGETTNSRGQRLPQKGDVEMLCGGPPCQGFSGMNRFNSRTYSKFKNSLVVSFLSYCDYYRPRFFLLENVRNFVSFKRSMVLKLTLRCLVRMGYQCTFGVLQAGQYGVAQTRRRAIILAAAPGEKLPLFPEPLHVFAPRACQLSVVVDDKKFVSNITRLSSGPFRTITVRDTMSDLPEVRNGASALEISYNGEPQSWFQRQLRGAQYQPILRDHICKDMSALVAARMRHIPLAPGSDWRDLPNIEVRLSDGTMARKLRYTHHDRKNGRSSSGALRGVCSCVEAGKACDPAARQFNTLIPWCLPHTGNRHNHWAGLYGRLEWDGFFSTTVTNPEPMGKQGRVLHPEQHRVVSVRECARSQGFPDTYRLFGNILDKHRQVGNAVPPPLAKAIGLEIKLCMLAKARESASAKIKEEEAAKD

SMILES | pIC50 (DNMT3B/3L) | expression of the DNMT1 enzyme (DNMT1 [1]) | pIC50 (DNMT3A/3L) | IC50 (HT-29 cells) [µM] | IC50 (HepG2 cells) [µM] | expression of DNMT3B (DNMT3B) | pIC50 (DNMT1 [2]) | inhibition of DNMT3B at the highest test compound concentration (DNMT3B/3L; 300 μM) | inhibition of DNMT3A at the highest test compound concentration (DNMT3A/3L; 300 μM) | inhibition of DNMT1 at the highest test compound concentration (DNMT1 [2]; 300 μM) | IC50 (DNMT1 [2]; read-out: IC50 (μM) DNMT1, cell-free biochemical assay, NI = no inhibition at the maximum test compound concentration (300 μM)) [µM]
Oc1ccc(/C=C/c2cc(O)cc(O)c2)cc1 [Resveratrol, 3,4′,5-trans-trihydroxystilbene] | 4.19 | did not significantly reduce | 3.98 | 130 | 54.9 | significant reduction | < 3.52 | – | – | – | –
COc1ccc(/C=C/c2cc(OC)cc(OC)c2)cc1 [TMS, 3,4′,5-trans-trimethoxystilbene] | < 3.52 | – | < 3.52 | 14 | > 100 | – | – | no significant inhibition | no significant inhibition | no significant inhibition | > 300
